Converted amounts (≈) assume the structure as drawn. Numbered stars: 1 amine (or outer) side, 2 acyl side, 3 side chain; on linkers, the order of the positions; unused ones are H or OH. Peptide text beside a SMILES is read from it. * marks the point of attachment. C20 diacid = O=C(O)CCCCCCCCCCCCCCCCCCC(=O)*; γGlu = O=C(O)[C@H](CCC(=O)[*:2])N[*:1]; C14 diacid = O=C(O)CCCCCCCCCCCCC(=O)*; AEEA = NCCOCCOCC(=O)O
What was measured:
[1] = Assay (IV) determination of solubility; assay type: physicochemical
Protocol: Assay (IV)—Determination of Solubility
The mimylin peptide was dissolved in water at ˜500 nmol/ml and mixed 1:1 with a series of buffers (100 mM glycylglycine pH 3.0, 100 mM glycylglycine pH 4.0, 100 mM glycylglycine pH 5.0, 100 mM bistrispropane pH 6.0, 100 mM bistrispropane pH 6.5, 100 mM bistrispropane pH 7.0, 100 mM bistrispropane pH 7.5, 100 mM bistrispropane pH 8.0).

rat calcitonin receptor = target: T1, rat calcitonin receptor (Rattus norvegicus, UniProt P32214); experiment: Assay (VIII) binding to the rat calcitonin receptor; conditions: membranes; read-out: rCT-R binding IC50
T1 construct: expressed in transfected cells; host or cells: BHK tk'ts 13 (transient, FuGENE 6)
T1 sequence (P32214 25-479 isoform P32214-2 limits assumed): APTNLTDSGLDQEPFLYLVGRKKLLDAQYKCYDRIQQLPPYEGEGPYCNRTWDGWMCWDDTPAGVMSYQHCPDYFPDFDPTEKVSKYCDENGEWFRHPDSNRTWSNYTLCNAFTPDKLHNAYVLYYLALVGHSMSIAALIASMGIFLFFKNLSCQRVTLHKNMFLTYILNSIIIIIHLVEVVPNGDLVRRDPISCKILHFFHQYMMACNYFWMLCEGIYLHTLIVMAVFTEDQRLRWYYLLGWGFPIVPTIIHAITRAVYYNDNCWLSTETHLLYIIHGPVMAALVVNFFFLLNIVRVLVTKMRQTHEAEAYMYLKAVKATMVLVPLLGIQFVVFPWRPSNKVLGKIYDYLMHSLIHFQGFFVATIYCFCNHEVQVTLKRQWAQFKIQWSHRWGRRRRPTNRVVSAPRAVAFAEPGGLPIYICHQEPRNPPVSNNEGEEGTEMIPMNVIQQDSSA
Protocol: The morning after, the plates were washed three times in HBSS (4° C.), and lyzed in Lysis buffer (0.1 M NaOH), 1% SDS. Scintillation cocktail (MicroScint40®) was added and the plates were shaken at 500 rpm for a short period. The plate was incubated at room temperature in the dark for 1 hour and Read on a TopCounter™ (Packard). The IC50 was calculated using (one site binding competition analysis) GraphPad Prism5 as a measure of receptor affinity. Assay (VIII)—Determination of Binding to the Rat Calcitonin Receptor
The assay was performed as described above (Assay (VII)—Determination of binding to the human calcitonin receptor) with the exception that we used membranes prepared from BHK tk'ts 13 cells that were transiently transfected with the rat calcitonin receptor. The BHK tk'ts 13 cells were transiently transfected with rat calcitonin receptor using FuGENE® 6 (Roche), according to the manufacturer's recommendations. Cells were grown in DMEM with 10% FBS and 1% Pen/Strep.

Solubility ([1]; pH 3.0) | solubility at 18 h ([1]; pH 4.0) [µM] | Solubility ([1]; pH 5.0) | Solubility ([1]; pH 6.0) | Solubility ([1]; pH 6.5) | Solubility ([1]; pH 7.0) | Solubility ([1]; pH 7.5) | Solubility ([1]; pH 8.0) | IC50 (rat calcitonin receptor) [nM] | Solubility ([1]; pH 4.0) | solubility at 18 h ([1]; pH 5.0) [µM] | Compound
≧200 μM | 10 (≈ 37.9 µg/mL) | ≧200 μM | ≧200 μM | ≧200 μM | ≧200 μM | ≧200 μM | ≧200 μM | 0.246 | – | – | CC(C)C[C@H](NC(=O)CNC(=O)[C@H](CO)NC(=O)[C@H](C)NC(=O)CC[C@H](NC(=O)CCCCCCCCCCCCCCCCCCC(=O)O)C(=O)O)C(=O)N[C@@H](CO)C(=O)N[C@H](C(=O)N[C@@H](C)C(=O)N[C@H](C(=O)N[C@@H](CC(C)C)C(=O)NCC(=O)N[C@@H](CCCCN)C(=O)N[C@@H](CC(C)C)C(=O)N[C@@H](CO)C(=O)N[C@@H](CCC(N)=O)C(=O)N[C@@H](CCC(=O)O)C(=O)N[C@@H](CC(C)C)C(=O)N[C@@H](Cc1cnc[nH]1)C(=O)N[C@@H](CCC(=O)O)C(=O)N[C@@H](CC(C)C)C(=O)N[C@@H](CCC(N)=O)C(=O)N[C@H](C(=O)N[C@@H](Cc1ccc(O)cc1)C(=O)N1CCC[C@H]1C(=O)N1CCC[C@H]1C(=O)N[C@H](C(=O)N[C@@H](CCC(=O)O)C(=O)N[C@H](C(=O)NCC(=O)N[C@@H](CO)C(=O)NCC(=O)N[C@H](C(=O)N[C@@H](Cc1ccc(O)cc1)C(N)=O)[C@@H](C)O)[C@@H](C)O)[C@@H](C)O)[C@@H](C)O)C(C)C)[C@@H](C)O [compound 131, [N-terminal(C20 diacid-gGlu), des1, 4G, 9V, 12K, 15Q, 21Q, 23Y, 25P, 30S, 31G, 32T, 33Y]mimylin] ({C20 diacid-γGlu}-ASGLSTAVLGKLSQELHELQTYPPTETGSGTY-NH2)
– | – | – | – | – | – | – | – | 0.069 | – | – | CC(C)C[C@H](NC(=O)[C@H](CCCNC(=N)N)NC(=O)CNC(=O)[C@H](CC(C)C)NC(=O)[C@@H](NC(=O)[C@H](C)NC(=O)[C@@H](NC(=O)[C@H](CO)NC(=O)[C@H](CC(C)C)NC(=O)[C@H](CCC(N)=O)NC(=O)[C@H](CO)NC(=O)[C@H](C)NC(=O)CC[C@H](NC(=O)CCCCCCCCCCCCCCCCCCC(=O)O)C(=O)O)[C@@H](C)O)C(C)C)C(=O)N[C@@H](CO)C(=O)N[C@@H](CCC(N)=O)C(=O)N[C@@H](CCCNC(=N)N)C(=O)N[C@@H](CC(C)C)C(=O)N[C@@H](Cc1cnc[nH]1)C(=O)N[C@@H](CCCNC(=N)N)C(=O)N[C@@H](CC(C)C)C(=O)N[C@@H](CCC(N)=O)C(=O)N[C@H](C(=O)N[C@@H](Cc1ccc(O)cc1)C(=O)N1CCC[C@H]1C(=O)N[C@@H](CCCNC(=N)N)C(=O)N[C@H](C(=O)N[C@@H](CCC(N)=O)C(=O)N[C@H](C(=O)NCC(=O)N[C@@H](CO)C(=O)N[C@@H](CCC(N)=O)C(=O)N[C@H](C(=O)N[C@@H](Cc1ccc(O)cc1)C(N)=O)[C@@H](C)O)[C@@H](C)O)[C@@H](C)O)[C@@H](C)O [compound 132, [N-terminal(C20 diacid-gGlu), des1, 4Q, 9V, 15Q, 16R, 19R, 21Q, 23Y, 27Q, 30S, 31Q, 32T, 33Y]mimylin] ({C20 diacid-γGlu}-ASQLSTAVLGRLSQRLHRLQTYPRTQTGSQTY-NH2)

Further lines, the molecule ahead of its results:

Compound | Solubility ([1]; pH 3.0) | solubility at 18 h ([1]; pH 4.0) [µM] | Solubility ([1]; pH 5.0) | Solubility ([1]; pH 6.0) | Solubility ([1]; pH 6.5) | Solubility ([1]; pH 7.0) | Solubility ([1]; pH 7.5) | Solubility ([1]; pH 8.0) | IC50 (rat calcitonin receptor) [nM] | Solubility ([1]; pH 4.0) | solubility at 18 h ([1]; pH 5.0) [µM]
CC(C)C[C@H](NC(=O)[C@H](C)NC(=O)[C@H](C)NC(=O)[C@@H](NC(=O)[C@H](CO)NC(=O)[C@H](CC(C)C)NC(=O)[C@H](CCC(=O)O)NC(=O)[C@H](CO)NC(=O)[C@H](C)NC(=O)CCCCCCCCCCCCC(=O)O)[C@@H](C)O)C(=O)NCC(=O)N[C@@H](CCCNC(=N)N)C(=O)N[C@@H](CC(C)C)C(=O)N[C@@H](CO)C(=O)N[C@@H](C)C(=O)N[C@@H](CCC(=O)O)C(=O)N[C@@H](CC(C)C)C(=O)N[C@@H](Cc1cnc[nH]1)C(=O)N[C@@H](CCC(=O)O)C(=O)N[C@@H](CC(C)C)C(=O)N[C@@H](C)C(=O)N[C@H](C(=O)N[C@@H](CC(C)C)C(=O)N1CCC[C@H]1C(=O)N[C@@H](CCCNC(=N)N)C(=O)N[C@H](C(=O)N[C@@H](CCC(=O)O)C(=O)N[C@H](C(=O)NCC(=O)N[C@@H](CO)C(=O)NCC(=O)N[C@@H](CO)C(=O)N1CCC[C@H]1C(N)=O)[C@@H](C)O)[C@@H](C)O)[C@@H](C)O [compound 51, [N-terminal(C14 diacid), des1, 30S, 31G]mimylin] ({C14 diacid}-ASELSTAALGRLSAELHELATLPRTETGSGSP-NH2) | ≧200 μM | – | ≧200 μM | ≧200 μM | ≧200 μM | ≧200 μM | ≧200 μM | ≧200 μM | 0.123 | ≧200 μM | –
CC(C)C[C@H](NC(=O)[C@H](C)NC(=O)[C@H](C)NC(=O)[C@@H](NC(=O)[C@H](CO)NC(=O)[C@H](CC(C)C)NC(=O)[C@H](CCC(=O)O)NC(=O)[C@H](CO)NC(=O)[C@H](C)NC(=O)COCCOCCNC(=O)CC[C@H](NC(=O)CCCCCCCCCCCCCCCCCCC(=O)O)C(=O)O)[C@@H](C)O)C(=O)NCC(=O)N[C@@H](CCCNC(=N)N)C(=O)N[C@@H](CC(C)C)C(=O)N[C@@H](CO)C(=O)N[C@@H](C)C(=O)N[C@@H](CCC(=O)O)C(=O)N[C@@H](CC(C)C)C(=O)N[C@@H](Cc1cnc[nH]1)C(=O)N[C@@H](CCC(=O)O)C(=O)N[C@@H](CC(C)C)C(=O)N[C@@H](C)C(=O)N[C@H](C(=O)N[C@@H](CC(C)C)C(=O)N1CCC[C@H]1C(=O)N[C@@H](CCCNC(=N)N)C(=O)N[C@H](C(=O)N[C@@H](CCC(=O)O)C(=O)N[C@H](C(=O)NCC(=O)N[C@@H](CO)C(=O)NCC(=O)N[C@@H](CO)C(=O)N1CCC[C@H]1C(N)=O)[C@@H](C)O)[C@@H](C)O)[C@@H](C)O [compound 41, [N-terminal(C20 diacid-gGlu-OEG), des1, 30S, 31G]mimylin] ({C20 diacid-γGlu-AEEA}-ASELSTAALGRLSAELHELATLPRTETGSGSP-NH2) | ≧200 μM | – | ≧200 μM | ≧200 μM | ≧200 μM | ≧200 μM | ≧200 μM | ≧200 μM | 0.044 | ≧200 μM | –
CC(C)C[C@H](NC(=O)CNC(=O)[C@H](CO)NC(=O)[C@H](C)NC(=O)CC[C@H](NC(=O)CCCCCCCCCCCCCCCCCCC(=O)O)C(=O)O)C(=O)N[C@@H](CO)C(=O)N[C@H](C(=O)N[C@@H](C)C(=O)N[C@@H](C)C(=O)N[C@@H](CC(C)C)C(=O)NCC(=O)N[C@@H](CCCNC(=N)N)C(=O)N[C@@H](CC(C)C)C(=O)N[C@@H](CO)C(=O)N[C@@H](CCC(N)=O)C(=O)N[C@@H](CCC(=O)O)C(=O)N[C@@H](CC(C)C)C(=O)N[C@@H](Cc1cnc[nH]1)C(=O)N[C@@H](CCC(=O)O)C(=O)N[C@@H](CC(C)C)C(=O)N[C@@H](CCC(N)=O)C(=O)N[C@H](C(=O)N[C@@H](Cc1ccc(O)cc1)C(=O)N1CCC[C@H]1C(=O)N[C@@H](CCCNC(=N)N)C(=O)N[C@H](C(=O)N[C@@H](CCC(=O)O)C(=O)N[C@H](C(=O)NCC(=O)N[C@@H](CO)C(=O)N[C@@H](CCC(N)=O)C(=O)N[C@H](C(=O)N[C@@H](Cc1ccc(O)cc1)C(N)=O)[C@@H](C)O)[C@@H](C)O)[C@@H](C)O)[C@@H](C)O)[C@@H](C)O [compound 109, [N-terminal(C20 diacid-gGlu), des1, 4G, 15Q, 21Q, 23Y, 30S, 31Q, 32T, 33Y]mimylin] ({C20 diacid-γGlu}-ASGLSTAALGRLSQELHELQTYPRTETGSQTY-NH2) | ≧200 μM | – | – | ≧200 μM | ≧200 μM | ≧200 μM | ≧200 μM | ≧200 μM | 0.012 | ≧200 μM | 7 (≈ 27.4 µg/mL)

Reference: patent US9593149B2, “Amylin and calcitonin receptor agonist” (Novo Nordisk A/S, priority 2014, dated 2017)
